Measured values published in the supplement of paper PMC10307832.

How the values were obtained:
Assay in all cases: relative viability (nuclei count vs DMSO), 5 days (fraction); higher = more cells survive
[1] = compound: Cn1nnc2c(C(N)=O)ncn2c1=O [Temozolomide] + COc1cccc2cc(-c3nc([C@H]4CC[C@H](C(=O)O)CC4)n4ncnc(N)c34)[nH]c12 [OSI-027] (partner 0.5 µM)
Procedure, shortened: (§1)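 Each reported value is a median over duplicate plates. It expresses relative viability: treated-well nuclei count divided by vehicle-well nuclei count. Lung cancer cell lines in 1536-well plates were dosed by pin tool a day after seeding, alone with one drug or with a fixed anchor-drug dose plus five library-drug doses (not always all listed) in √10 steps, and nuclei were counted after 5 days.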

[2] = compound: Cn1nnc2c(C(N)=O)ncn2c1=O [Temozolomide] + CS(=O)(=O)CCNCc1ccc(-c2ccc3ncnc(Nc4ccc(OCc5cccc(F)c5)c(Cl)c4)c3c2)o1 [Lapatinib] (partner 2 µM)
Procedure, shortened: as §1

[3] = compound: Cn1nnc2c(C(N)=O)ncn2c1=O [Temozolomide] + Nc1nc2[nH]cc(CCc3ccc(C(=O)N[C@@H](CCC(=O)O)C(=O)O)cc3)c2c(=O)[nH]1 [Pemetrexed] (partner 0.2 µM)
Procedure, shortened: as §1

[4] = compound: C[C@@H](C(=O)N[C@@H](C1CCCCC1)C(=O)N2CCC[C@H]2C(=O)N[C@@H]3[C@@H](CC4=CC=CC=C34)OCC#CC#CCO[C@@H]5CC6=CC=CC=C6[C@@H]5NC(=O)[C@@H]7CCCN7C(=O)[C@H](C8CCCCC8)NC(=O)[C@H](C)NC)NC [AZD5582] + COc1cc2c(Oc3ccc(NC(=O)C4(C(=O)Nc5ccc(F)cc5)CC4)cc3F)ccnc2cc1OCCCN1CCOCC1 [Foretinib] (partner 0.25 µM)
Procedure, shortened: as §1

Row | Cell Line | relative viability ([1]; first compound 0.2 µM) | relative viability ([1]; first compound 0.6325 µM) | relative viability ([1]; first compound 2 µM) | relative viability ([1]; first compound 6.325 µM) | relative viability ([1]; first compound 20 µM) | relative viability ([2]; first compound 0.2 µM) | relative viability ([2]; first compound 0.6325 µM) | relative viability ([2]; first compound 2 µM) | relative viability ([2]; first compound 6.325 µM) | relative viability ([2]; first compound 20 µM) | relative viability ([3]; first compound 0.2 µM) | relative viability ([3]; first compound 0.6325 µM) | relative viability ([3]; first compound 2 µM) | relative viability ([3]; first compound 6.325 µM) | relative viability ([3]; first compound 20 µM) | relative viability ([4]; first compound 0.001581 µM) | relative viability ([4]; first compound 0.005 µM) | relative viability ([4]; first compound 0.01581 µM) | relative viability ([4]; first compound 0.05 µM)
1 | 201T | 0.77 | 0.716 | 0.583 | 0.769 | 0.794 | 1.07 | 1.06 | 1.03 | 1.02 | 1.03 | 0.346 | 0.345 | 0.398 | 0.339 | 0.316 | 1.09 | 1.43 | 1.12 | 1.45
2 | A549 |  |  |  |  |  | 0.989 | 1.03 | 1.01 | 1.03 | 0.912 |  |  |  |  |  | 0.821 | 1.13 | 0.938 | 1.14
3 | A-427 | 0.481 | 0.4 | 0.507 | 0.365 | 0.299 | 0.989 | 1.09 | 1.14 | 0.91 | 0.487 | 1.01 | 0.919 | 0.957 | 0.783 | 0.549 | 0.986 | 0.881 | 1.09 | 0.769
4 | ABC-1 | 0.554 | 0.513 | 0.564 | 0.517 | 0.585 | 0.93 | 1.22 | 1.18 | 1.16 | 1.3 |  |  |  |  |  | 0.875 | 1.11 | 1.05 | 0.852
5 | BEN | 0.326 | 0.289 | 0.296 | 0.283 | 0.306 | 0.641 | 0.692 | 0.66 | 0.633 | 0.467 | 0.801 | 0.92 | 0.936 | 0.741 | 0.841 | 0.634 | 0.751 | 0.627 | 0.415
6 | CAL-12T | 0.728 | 0.712 | 0.914 | 0.608 | 0.657 |  | 0.585 | 0.601 | 0.607 | 0.8 | 1.34 | 1.12 | 1.1 | 1.16 | 1.39 | 0.821 | 0.772 | 1.06 | 0.732
7 | COR-L23 | 1.01 | 0.714 | 0.766 | 0.814 | 0.652 | 1.25 | 1.03 | 1.12 | 1.02 | 0.948 | 0.188 | 0.211 | 0.19 | 0.184 | 0.217 | 0.963 | 0.887 | 0.87 | 1.1
8 | COR-L 105 | 0.476 | 0.781 | 0.735 | 0.742 | 0.303 | 0.392 | 0.387 | 0.356 | 0.35 | 0.351 | 1.12 | 1.07 | 1.02 | 1.06 | 1.06 | 1.02 | 1.32 | 0.888 | 1.16
9 | Calu-6 |  |  |  |  |  | 1.17 | 1.07 | 1.11 | 1.13 | 1.16 |  |  |  |  |  | 0.695 | 0.523 | 0.826 | 0.437
10 | ChaGo-K-1 | 0.623 | 0.543 | 0.685 | 0.508 | 0.554 |  |  |  |  |  | 0.258 | 0.256 | 0.263 | 0.257 | 0.246 | 0.882 | 0.9 | 0.83 | 1.1
11 | EBC-1 |  |  |  |  |  | 0.197 | 0.193 | 0.252 | 0.203 | 0.194 |  |  |  |  |  | 0.098 | 0.101 | 0.11 | 0.107
12 | EKVX | 0.513 | 0.669 | 0.555 | 0.686 | 0.591 | 0.189 | 0.238 | 0.204 | 0.242 | 0.197 |  | 0.38 | 0.352 | 0.388 | 0.305 | 0.691 | 0.932 | 0.553 | 0.612
13 | EMC-BAC-2 | 0.454 | 0.355 | 0.369 | 0.396 | 0.419 | 0.914 | 0.871 | 0.898 | 0.856 | 0.84 | 0.468 | 0.445 | 0.485 | 0.415 | 0.509 | 0.867 | 0.809 | 1.02 | 0.412
14 | EPLC-272H | 0.257 | 0.279 | 0.295 | 0.291 | 0.216 | 1.12 | 1.05 | 1.01 | 0.798 | 0.858 | 0.321 | 0.322 | 0.356 | 0.247 | 0.317 | 0.0672 |  | 0.546 | 0.0632
15 | H3255 |  | 0.656 | 0.606 | 0.569 | 0.208 |  | 0.243 | 0.233 | 0.376 | 0.241 |  | 0.544 | 0.59 | 0.543 | 0.336 | 0.868 | 0.796 | 0.741 | 0.772
16 | HARA | 0.318 | 0.656 | 0.558 | 0.439 | 0.226 | 0.777 | 0.721 | 0.975 | 0.658 | 0.732 | 0.203 | 0.228 | 0.269 | 0.2 | 0.273 | 0.858 | 0.918 | 0.904 | 0.639
17 | HCC-15 | 0.778 | 0.68 | 0.683 | 0.695 | 0.669 | 0.91 | 0.87 | 0.931 | 0.829 | 0.892 | 0.24 | 0.221 | 0.227 | 0.207 | 0.228 | 0.74 | 0.805 | 0.959 | 0.75
18 | HCC-44 | 0.682 | 0.425 | 0.477 | 0.494 | 0.477 | 1.14 | 1.01 | 1.11 | 1.05 | 0.975 | 0.688 | 0.669 | 0.699 | 0.707 | 0.653 |  |  |  | 
19 | HCC-78 | 0.347 | 0.349 | 0.362 | 0.383 | 0.349 | 0.938 | 0.602 | 0.791 | 0.321 | 0.826 | 0.896 | 0.921 | 0.927 |  | 0.958 | 0.537 | 0.624 | 0.548 | 0.62
